Measurements from ChEMBL document CHEMBL6134864, “Discovery of FLT3-ITD Inhibitor Clifutinib: A Novel Biphenylacetylene Urea Derivative in Clinical Trials for the Treatment of Relapsed/Refractory FLT3-ITD+ Acute Myeloid Leukemia” (J Med Chem, 2025).

Tests used:
[1] = target: Proto-oncogene tyrosine-protein kinase receptor Ret (Homo sapiens, UniProt P07949, G691S); assay: Inhibition of human RET G691S mutant by biochemical kinase binding assay
[2] = Half life in dog plasma at 5 mg/kg, po measured up to 24 hrs by LC-MS/MS analysis; format: ADME, organism-based, Canis lupus familiaris
MV4-11 = assay: Induction of apoptosis in human MV4-11 cells harbouring FLT3-ITD mutant measured after 48 to 72 hrs by annexin V and PI staining based flow cytometry analysis; format: functional, cell-based; conditions: dose 1-100 nM, time 48-72 hrs
[3] = Oral bioavailability in rat plasma at 5 mg/kg measured up to 24 hrs by LC-MS/MS analysis; format: ADME, organism-based
[4] = Half life in rat plasma at 5 mg/kg, po measured up to 24 hrs by LC-MS/MS analysis; format: ADME, organism-based
[5] = AUC (0 to t) in NOD/SCID mouse plasma xenografted with human MV4-11 cells at 0.5 mg/kg, po measured up to 24 hrs by LC-MS/MS analysis; format: ADME, organism-based
OVCAR-3 = assay: cells; conditions: Homo sapiens, OVCAR-3, 72 h
Description: Antiproliferative activity against human OVCAR-3 cells assessed as inhibition of cell growth incubated for 72 hrs by celltiter-glo luminescent cell viability assay

[6] = Cmax in NOD/SCID mouse tumor xenografted with human MV4-11 cells at […], po measured up to 24 hrs by LC-MS/MS analysis; format: ADME, organism-based, Neoplasm; conditions: dose 1.5 mg/kg
[7] = Volume of distribution at steady state in mouse plasma at 2 mg/kg, iv measured up to 24 hrs by LC-MS/MS analysis; format: ADME, organism-based; conditions: read-out: Vdss
[8] = Half life in NOD/SCID mouse tumor xenografted with human MV4-11 cells at 0.5 mg/kg, po measured up to 24 hrs by LC-MS/MS analysis; format: ADME, organism-based, Neoplasm
[9] = AUC last in monkey plasma at 5 mg/kg, po measured up to 24 hrs by LC-MS/MS analysis; format: ADME, organism-based, Macaca mulatta; conditions: rhesus monkey, in vivo
COLO 205 = assay: cells; conditions: Homo sapiens, COLO 205, 72 h
Description: Antiproliferative activity against human COLO 205 cells assessed as inhibition of cell growth incubated for 72 hrs by celltiter-glo luminescent cell viability assay

BaF3 [10] = assay: cells; conditions: Mus musculus, BaF3, 72 h
[11] = Cmax in NOD/SCID mouse plasma xenografted with human MV4-11 cells at 0.5 mg/kg, po measured up to 24 hrs by LC-MS/MS analysis; format: ADME, organism-based
[12] = AUC (0 to t) in NOD/SCID mouse tumor xenografted with human MV4-11 cells at […], po measured up to 24 hrs by LC-MS/MS analysis; format: ADME, organism-based, Neoplasm; conditions: dose 1.5 mg/kg
K562 = assay: cells; conditions: Homo sapiens, K562, 72 h
Description: Antiproliferative activity against human K562 cells assessed as inhibition of cell growth incubated for 72 hrs by celltiter-glo luminescent cell viability assay

SK-OV-3 = assay: cells; conditions: Homo sapiens, SK-OV-3, 72 h
Description: Antiproliferative activity against human SK-OV-3 cells assessed as inhibition of cell growth incubated for 72 hrs by celltiter-glo luminescent cell viability assay

Cytochrome P450 1A2 = Cytochrome P450 1A2 (Homo sapiens, UniProt P05177); assay: Inhibition of CYP1A2 in human liver microsomes by UPLC-MS/MS analysis; format: ADME, Microsome
BaF3 [13] = assay: cells; conditions: Mus musculus, BaF3, 72 h; remark: listed apart in the source
BaF3 [14] = assay: cells; conditions: Mus musculus, BaF3, 72 h; remark: listed apart in the source
[15] = test system: Receptor-type tyrosine-protein kinase FLT3 (Homo sapiens), P36888 [UNDEFINED MUTATION]; assay: Inhibition of FLT3 in human MV4-11 cells harbouring FLT3-ITD mutant assessed as inhibition of STAT5 phosphorylation level measured after 2 hrs by Western blot analysis; format: cell-based; conditions: dose 1-1000 nM
BaF3 [16] = assay: Antiproliferative activity against mouse BaF3 cells harbouring FLT3-ITD-N676D mutant assessed as inhibition of cell growth incubated for 72 hrs by celltiter-glo luminescent cell viability assay; format: functional, cell-based; conditions: BaF3, 72 h
MOLM-13 = assay: Antitumor activity against human MOLM-13 cells xenografted in NOD/SCID mouse model assessed as tumor growth inhibition at […], po in presence of Ara-C by caliper analysis relative to control; format: functional; conditions: dose 1.5 mg/kg/day, read-out: TGI
[17] = AUC (0 to t) in NOD/SCID mouse tumor xenografted with human MV4-11 cells at 0.5 mg/kg, po measured up to 24 hrs by LC-MS/MS analysis; format: ADME, organism-based, Neoplasm
[18] = Clearance in rat plasma at 5 mg/kg, po measured up to 24 hrs by LC-MS/MS analysis; format: ADME, organism-based
[19] = AUC last in monkey plasma at 1 mg/kg, iv measured up to 24 hrs by LC-MS/MS analysis; format: ADME, organism-based, Macaca mulatta; conditions: rhesus monkey, in vivo
MOLT-4 = assay: cells; conditions: Homo sapiens, MOLT-4, 72 h
Description: Antiproliferative activity against human MOLT-4 cells assessed as inhibition of cell growth incubated for 72 hrs by celltiter-glo luminescent cell viability assay

DU-145 = assay: cells; conditions: Homo sapiens, DU-145, 72 h
Description: Antiproliferative activity against human DU-145 cells assessed as inhibition of cell growth incubated for 72 hrs by celltiter-glo luminescent cell viability assay

[20] = Tmax in dog plasma at 1 mg/kg, iv measured up to 24 hrs by LC-MS/MS analysis; format: ADME, organism-based, Canis lupus familiaris
CAKI-1 = assay: cells; conditions: Homo sapiens, CAKI-1, 72 h
Description: Antiproliferative activity against human CAKI-1 cells assessed as inhibition of cell growth incubated for 72 hrs by celltiter-glo luminescent cell viability assay

hERG (KCNH2) = hERG (KCNH2) (Homo sapiens, UniProt Q12809); assay: Inhibition of human ERG expressed in CHO cells at 30 uM by manual patch clamp assay relative to control; format: toxicity, cell-based; conditions: CHO cells expressing human ERG
BaF3 [21] = assay: Antiproliferative activity against mouse BaF3 cells harbouring FLT3-ITD-Y842R mutant assessed as inhibition of cell growth incubated for 72 hrs by celltiter-glo luminescent cell viability assay; format: functional, cell-based; conditions: BaF3, 72 h
[22] = Tmax in NOD/SCID mouse plasma xenografted with human MV4-11 cells at 4.5 mg/kg, po measured up to 24 hrs by LC-MS/MS analysis; format: ADME, organism-based
BaF3 [23] = assay: Antiproliferative activity against wild type mouse BaF3 cells assessed as inhibition of cell growth incubated for 72 hrs by celltiter-glo luminescent cell viability assay; format: functional, cell-based; conditions: BaF3, 72 h
HCT-116 = assay: cells; conditions: Homo sapiens, HCT-116, 72 h
Description: Antiproliferative activity against human HCT-116 cells assessed as inhibition of cell growth incubated for 72 hrs by celltiter-glo luminescent cell viability assay

786-0 = assay: cells; conditions: Homo sapiens, 786-0, 72 h
Description: Antiproliferative activity against human 786-0 cells assessed as inhibition of cell growth incubated for 72 hrs by celltiter-glo luminescent cell viability assay

[24] = Volume of distribution at steady state in dog plasma at 1 mg/kg, iv measured up to 24 hrs by LC-MS/MS analysis; format: ADME, organism-based, Canis lupus familiaris; conditions: read-out: Vdss
[25] = AUC last in mouse plasma at 10 mg/kg, po measured up to 24 hrs by LC-MS/MS analysis; format: ADME, organism-based
[26] = Clearance in dog plasma at 1 mg/kg, iv measured up to 24 hrs by LC-MS/MS analysis; format: ADME, organism-based, Canis lupus familiaris
[27] = Tmax in NOD/SCID mouse plasma xenografted with human MV4-11 cells at 0.5 mg/kg, po measured up to 24 hrs by LC-MS/MS analysis; format: ADME, organism-based
U-87 MG = assay: cells; conditions: Homo sapiens, 72 h
Description: Antiproliferative activity against human U-87 MG cells assessed as inhibition of cell growth incubated for 72 hrs by celltiter-glo luminescent cell viability assay

[28] = Clearance in monkey plasma at 1 mg/kg, iv measured up to 24 hrs by LC-MS/MS analysis; format: ADME, organism-based, Macaca mulatta; conditions: rhesus monkey

Chain of Proto-oncogene tyrosine-protein kinase receptor Ret (P07949 29-1114 G691S limits assumed): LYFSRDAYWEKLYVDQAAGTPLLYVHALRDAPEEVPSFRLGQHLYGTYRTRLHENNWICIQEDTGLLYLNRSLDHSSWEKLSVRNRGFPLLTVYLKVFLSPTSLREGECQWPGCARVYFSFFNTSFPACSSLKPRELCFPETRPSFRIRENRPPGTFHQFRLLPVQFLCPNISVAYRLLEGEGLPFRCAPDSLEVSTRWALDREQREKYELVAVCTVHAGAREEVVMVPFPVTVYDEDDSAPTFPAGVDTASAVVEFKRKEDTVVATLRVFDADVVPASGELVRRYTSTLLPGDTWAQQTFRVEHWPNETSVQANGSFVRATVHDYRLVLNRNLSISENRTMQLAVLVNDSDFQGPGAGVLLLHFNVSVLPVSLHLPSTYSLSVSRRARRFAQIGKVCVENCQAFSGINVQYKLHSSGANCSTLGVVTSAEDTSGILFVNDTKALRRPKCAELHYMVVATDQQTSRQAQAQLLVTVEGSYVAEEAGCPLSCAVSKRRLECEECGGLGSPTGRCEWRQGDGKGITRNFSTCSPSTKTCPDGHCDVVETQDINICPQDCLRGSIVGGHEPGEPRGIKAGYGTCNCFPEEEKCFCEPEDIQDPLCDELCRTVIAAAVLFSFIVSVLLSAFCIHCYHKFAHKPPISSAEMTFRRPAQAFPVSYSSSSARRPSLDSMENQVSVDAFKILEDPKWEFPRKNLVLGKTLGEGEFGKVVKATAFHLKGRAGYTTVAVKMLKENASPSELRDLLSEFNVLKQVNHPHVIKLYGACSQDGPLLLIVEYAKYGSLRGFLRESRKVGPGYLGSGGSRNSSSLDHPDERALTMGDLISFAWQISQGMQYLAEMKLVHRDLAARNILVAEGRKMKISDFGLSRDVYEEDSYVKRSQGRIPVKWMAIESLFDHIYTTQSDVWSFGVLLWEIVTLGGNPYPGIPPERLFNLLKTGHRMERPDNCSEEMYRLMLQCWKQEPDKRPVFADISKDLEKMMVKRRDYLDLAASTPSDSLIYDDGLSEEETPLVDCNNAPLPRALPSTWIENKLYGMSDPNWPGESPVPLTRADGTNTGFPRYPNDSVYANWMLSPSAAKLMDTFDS
Chain of Cytochrome P450 1A2 (P05177 whole entry): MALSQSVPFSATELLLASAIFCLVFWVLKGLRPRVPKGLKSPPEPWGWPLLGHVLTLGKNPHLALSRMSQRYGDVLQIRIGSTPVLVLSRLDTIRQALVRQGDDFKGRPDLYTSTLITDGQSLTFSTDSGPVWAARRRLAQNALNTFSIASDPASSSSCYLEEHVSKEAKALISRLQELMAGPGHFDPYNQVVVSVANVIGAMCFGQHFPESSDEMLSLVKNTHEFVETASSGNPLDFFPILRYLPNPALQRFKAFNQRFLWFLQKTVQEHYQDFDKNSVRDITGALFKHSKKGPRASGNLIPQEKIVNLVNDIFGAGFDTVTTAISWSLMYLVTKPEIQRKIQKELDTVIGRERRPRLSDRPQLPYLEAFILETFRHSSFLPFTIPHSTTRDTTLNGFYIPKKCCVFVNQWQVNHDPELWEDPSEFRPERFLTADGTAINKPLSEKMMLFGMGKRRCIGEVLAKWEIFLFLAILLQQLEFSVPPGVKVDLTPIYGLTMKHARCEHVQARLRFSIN
Chain of Receptor-type tyrosine-protein kinase FLT3 (Homo sapiens), P36888 [UNDEFINED MUTATION] (P36888 whole entry, looked up, stated change not applied): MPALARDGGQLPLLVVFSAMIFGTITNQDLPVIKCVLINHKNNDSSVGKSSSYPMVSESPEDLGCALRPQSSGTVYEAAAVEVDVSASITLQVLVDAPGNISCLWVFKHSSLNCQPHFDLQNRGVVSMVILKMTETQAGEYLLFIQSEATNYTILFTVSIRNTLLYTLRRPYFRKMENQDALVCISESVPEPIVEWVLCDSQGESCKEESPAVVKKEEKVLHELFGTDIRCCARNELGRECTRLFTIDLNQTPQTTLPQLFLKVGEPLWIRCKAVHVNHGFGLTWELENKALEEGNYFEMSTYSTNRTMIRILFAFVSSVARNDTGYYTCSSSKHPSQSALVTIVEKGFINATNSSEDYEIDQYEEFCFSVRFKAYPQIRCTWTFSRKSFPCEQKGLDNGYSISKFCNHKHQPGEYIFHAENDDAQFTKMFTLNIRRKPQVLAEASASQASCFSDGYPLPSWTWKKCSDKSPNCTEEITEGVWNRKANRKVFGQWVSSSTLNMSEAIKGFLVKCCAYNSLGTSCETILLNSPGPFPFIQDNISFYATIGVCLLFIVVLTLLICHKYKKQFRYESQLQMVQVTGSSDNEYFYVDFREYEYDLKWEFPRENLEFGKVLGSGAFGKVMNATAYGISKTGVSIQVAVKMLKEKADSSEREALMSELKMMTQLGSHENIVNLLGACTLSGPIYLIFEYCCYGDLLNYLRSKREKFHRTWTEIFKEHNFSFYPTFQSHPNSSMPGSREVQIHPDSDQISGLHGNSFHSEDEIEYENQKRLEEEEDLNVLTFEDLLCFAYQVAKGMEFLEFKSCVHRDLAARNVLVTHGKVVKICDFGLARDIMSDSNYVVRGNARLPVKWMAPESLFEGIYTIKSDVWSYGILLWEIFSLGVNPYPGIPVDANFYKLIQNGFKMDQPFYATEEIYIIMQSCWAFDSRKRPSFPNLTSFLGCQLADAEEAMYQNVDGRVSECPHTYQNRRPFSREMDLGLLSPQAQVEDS
Chain of hERG (KCNH2) (Q12809 whole entry): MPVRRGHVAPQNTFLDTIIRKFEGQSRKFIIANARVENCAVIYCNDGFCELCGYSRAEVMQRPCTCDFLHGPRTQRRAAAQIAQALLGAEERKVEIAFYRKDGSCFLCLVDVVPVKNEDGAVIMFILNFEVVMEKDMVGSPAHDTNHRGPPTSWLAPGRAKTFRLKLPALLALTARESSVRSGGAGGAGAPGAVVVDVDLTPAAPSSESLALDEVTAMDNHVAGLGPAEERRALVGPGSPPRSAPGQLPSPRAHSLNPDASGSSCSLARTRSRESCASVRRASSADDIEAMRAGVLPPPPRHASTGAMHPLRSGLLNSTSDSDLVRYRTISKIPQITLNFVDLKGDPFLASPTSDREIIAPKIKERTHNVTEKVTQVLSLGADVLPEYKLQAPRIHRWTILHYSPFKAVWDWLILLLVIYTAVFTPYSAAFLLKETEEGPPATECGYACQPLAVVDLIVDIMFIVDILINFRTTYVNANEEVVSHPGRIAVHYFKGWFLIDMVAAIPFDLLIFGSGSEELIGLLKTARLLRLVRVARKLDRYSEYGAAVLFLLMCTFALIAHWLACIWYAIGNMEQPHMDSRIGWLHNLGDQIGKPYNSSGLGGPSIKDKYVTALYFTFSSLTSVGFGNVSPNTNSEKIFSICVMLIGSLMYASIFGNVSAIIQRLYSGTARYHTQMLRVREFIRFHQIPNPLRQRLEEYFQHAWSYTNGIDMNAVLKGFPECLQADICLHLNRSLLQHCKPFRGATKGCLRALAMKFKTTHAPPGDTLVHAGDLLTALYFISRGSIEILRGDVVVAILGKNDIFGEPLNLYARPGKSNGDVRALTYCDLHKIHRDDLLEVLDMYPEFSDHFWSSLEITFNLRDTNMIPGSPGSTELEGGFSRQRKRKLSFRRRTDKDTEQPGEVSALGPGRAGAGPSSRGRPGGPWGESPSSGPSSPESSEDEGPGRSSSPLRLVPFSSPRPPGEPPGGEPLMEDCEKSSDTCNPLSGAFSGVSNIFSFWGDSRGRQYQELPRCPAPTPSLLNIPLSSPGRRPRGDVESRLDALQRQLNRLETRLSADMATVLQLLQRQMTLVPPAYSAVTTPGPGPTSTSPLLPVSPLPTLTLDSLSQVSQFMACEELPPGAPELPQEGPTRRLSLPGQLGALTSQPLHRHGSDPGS

For `CC(C)(C)c1cc(NC(=O)Nc2ccc(C#Cc3ccc(OCCCN4CCOCC4)cc3)cc2)no1`, the IC50 [1] was 439 nM, the half-life [2] was 7.41 h and the Activity (MV4-11) was “Dose-dependent-effect”. For the same compound, the bioavailability [3] was 67.9%, the half-life [4] was 4.45 h and the AUC(0-t) at 24 h [5] was 58.9 ng·h/mL. The IC50 (OVCAR-3) was > 10000 nM, the Cmax at 24 h [6] was 91.9 ng/mL and the Vd [7] was 1.36 L/kg. The half-life [8] was 11.3 h, the AUClast [9] was 10800 ng·h/mL and the IC50 (COLO 205) was > 10000 nM. The IC50 (BaF3 [10]) was 74.7 nM, the Cmax [11] was 20.5 ng/mL and the AUC(0-t) at 24 h [12] was 1470 ng·h/mL. The IC50 (K562) was > 10000 nM, the IC50 (SK-OV-3) was > 10000 nM and the IC50 (Cytochrome P450 1A2) was > 33300 nM. The IC50 (BaF3 [13]) was 4.1 nM, the IC50 (BaF3 [14]) was 5.8 nM and the inhibition [15] was “Dose-dependent-effect”. The IC50 (BaF3 [16]) was 6.9 nM, the inhibition in vivo at […] (MOLM-13) was 80% and the AUC(0-t) at 24 h [17] was 380 ng·h/mL. For the same compound, the CL/F [18] was 6.67 mL/min/kg, the AUClast [19] was 10100 ng·h/mL and the IC50 (MOLT-4) was > 10000 nM. For the same compound, the IC50 (DU-145) was > 10000 nM, the Tmax [20] was 4.98 min and the IC50 (CAKI-1) was > 10000 nM. For the same compound, the inhibition at 30 µM (hERG (KCNH2)) was 22.8%, the IC50 (BaF3 [21]) was 21.8 nM and the Tmax [22] was 1 h. For the same compound, the IC50 (BaF3 [23]) was > 1000 nM, the IC50 (HCT-116) was 8500 nM and the IC50 (786-0) was 3400 nM. For the same compound, the Vd [24] was 5.08 L/kg, the AUC(0-t) at 24 h [25] was 4380 ng·h/mL and the clearance [26] was 11.3 mL/min/kg. The Tmax [27] was 1 h, the IC50 (U-87 MG) was > 10000 nM and the clearance [28] was 1.35 mL/min/kg.
